Earlier results, collected in patent publication US20220142894A1, “A PROCESS OF COLORING KERATINOUS MATERIAL COMPRISING THE USE OF AN ORGANOSILICON COMPOUND, AN EFFECT PIGMENT, AND A SEALING REAGENT V” (Henkel AG & Co. KGaA, priority 2019, published 2022).

Settings: 25° C.

SMILES | solubility in water | solubility in water (in words)
CCN(Cc1cccc(S(=O)(=O)[O-])c1)c1ccc(C(=C2C=CC(=[N+](CC)Cc3cccc(S(=O)(=O)[O-])c3)C=C2)c2ccccc2S(=O)(=O)[O-])cc1.[Na+].[Na+] [Acid Blue 9] | more than 20 % by weight | 
O=S(=O)([O-])c1ccc(N=Nc2c(O)ccc3ccccc23)cc1.[Na+] [Acid Orange 7, sodium salt of 4-[(2-hydroxy-1-naphthyl)azo]benzene sulphonate] | more than 7 g/L | 
Nc1cc(S(=O)(=O)[O-])cc2cc(S(=O)(=O)[O-])c(N=Nc3ccccc3)c(O)c12.[Na+].[Na+] [Acid Red 33, disodium salt of 5-amino-4-hydroxy-3-(phenylazo)-naphthalene-2,7-disulphonate] | 2500 µg/mL | 
O=C([O-])c1c(Cl)c(Cl)c(Cl)c(Cl)c1-c1c2c(Br)cc(=O)c(Br)c-2oc2c(Br)c(O)cc(Br)c12.O=C([O-])c1c(Cl)c(Cl)c(Cl)c(Cl)c1-c1c2c(Br)cc(=O)c(Br)c-2oc2c(Br)c(O)cc(Br)c12.[Na+].[Na+] [Acid Red 92, disodium salt of 3,4,5,6-tetrachloro-2-(1,4,5,8-tetrabromo-6-hydroxy-3-oxoxanthen-9-yl)benzoic acid] | greater than 10 g/L | 
O=C([O-])C1=NN(c2ccc(S(=O)(=O)[O-])cc2)C(=O)C1N=Nc1ccc(S(=O)(=O)[O-])cc1.[Na+].[Na+].[Na+] (centres unmarked) [Acid Yellow 23, trisodium salt of 4,5-dihydro-5-oxo-1-(4-sulfophenyl)-4-((4-sulfophenyl)azo)-1H-pyrazole-3-carboxylic acid] |  | highly soluble
